Experiment: xn = mol fraction of the nth substance listed
Details: Liquid, Vibrating tube method

CN(C)C=O [dimethylformamide] + O=C=O
Details	mass density [kg/m3]
323.1 K, 12012 kPa, x2 = 0.4502	948.99
323.1 K, 12998 kPa, x2 = 0.4068	949.23
323.1 K, 13022 kPa, x2 = 0.4502	950.22
323.1 K, 13979 kPa, x2 = 0.4068	950.27
323.1 K, 14010 kPa, x2 = 0.4502	951.35
323.1 K, 15004 kPa, x2 = 0.4068	951.37
323.1 K, 15007 kPa, x2 = 0.4502	952.52
323.1 K, 16001 kPa, x2 = 0.4068	952.41
323.1 K, 16010 kPa, x2 = 0.4502	953.67
323.1 K, 16989 kPa, x2 = 0.4068	953.45
323.1 K, 17008 kPa, x2 = 0.4502	954.76
323.1 K, 18013 kPa, x2 = 0.4502	955.9
323.1 K, 18017 kPa, x2 = 0.4068	954.51
323.1 K, 18998 kPa, x2 = 0.4068	955.51
323.1 K, 19001 kPa, x2 = 0.4502	956.99
323.1 K, 19996 kPa, x2 = 0.4502	958.07
323.1 K, 20005 kPa, x2 = 0.4068	956.52
323.1 K, 20986 kPa, x2 = 0.4068	957.5
323.1 K, 21010 kPa, x2 = 0.4502	959.2
323.1 K, 22004 kPa, x2 = 0.4502	960.27
323.1 K, 22021 kPa, x2 = 0.4068	958.56
323.1 K, 22997 kPa, x2 = 0.4502	961.32
323.1 K, 22998 kPa, x2 = 0.4068	959.49
323.1 K, 23987 kPa, x2 = 0.4068	960.47
323.1 K, 23995 kPa, x2 = 0.4502	962.39
323.1 K, 25019 kPa, x2 = 0.4502	963.43
323.1 K, 25057 kPa, x2 = 0.4068	961.5
323.15 K, 5022 kPa, x2 = 0.2876	937.32
323.15 K, 6019 kPa, x2 = 0.2876	938.29
323.15 K, 7007 kPa, x2 = 0.2876	939.23
323.15 K, 8008 kPa, x2 = 0.2876	940.16
323.15 K, 9023 kPa, x2 = 0.2876	941.14
323.15 K, 10001 kPa, x2 = 0.2876	942.04
323.15 K, 11006 kPa, x2 = 0.2876	942.98
323.15 K, 12003 kPa, x2 = 0.2876	943.9
323.15 K, 13004 kPa, x2 = 0.2876	944.81
323.15 K, 14005 kPa, x2 = 0.2876	945.73
323.15 K, 14999 kPa, x2 = 0.2876	946.61
323.15 K, 15994 kPa, x2 = 0.2876	947.48
323.15 K, 17022 kPa, x2 = 0.2876	948.41
323.15 K, 17996 kPa, x2 = 0.2876	949.25
323.15 K, 19004 kPa, x2 = 0.2876	950.13
323.15 K, 20021 kPa, x2 = 0.2876	950.99
323.15 K, 21018 kPa, x2 = 0.2876	951.84
323.15 K, 22030 kPa, x2 = 0.2876	952.68
323.15 K, 23007 kPa, x2 = 0.2876	953.51
323.15 K, 24019 kPa, x2 = 0.2876	954.35
323.15 K, 25012 kPa, x2 = 0.2876	955.16
332.96 K, 10005 kPa, x2 = 0.6235	907.82
332.96 K, 10991 kPa, x2 = 0.6235	910.93
332.96 K, 12056 kPa, x2 = 0.6235	913.98
332.96 K, 13000 kPa, x2 = 0.6235	916.59
332.96 K, 14042 kPa, x2 = 0.6235	919.37
332.96 K, 15010 kPa, x2 = 0.6235	921.91
332.96 K, 15997 kPa, x2 = 0.6235	924.4
332.96 K, 17030 kPa, x2 = 0.6235	926.91
332.96 K, 18038 kPa, x2 = 0.6235	929.31
332.96 K, 19028 kPa, x2 = 0.6235	931.63
332.96 K, 20027 kPa, x2 = 0.6235	933.85
332.96 K, 21009 kPa, x2 = 0.6235	936.05
332.96 K, 22009 kPa, x2 = 0.6235	938.17
332.96 K, 23042 kPa, x2 = 0.6235	940.35
332.96 K, 24041 kPa, x2 = 0.6235	942.44
332.96 K, 25008 kPa, x2 = 0.6235	944.38
332.97 K, 13046 kPa, x2 = 0.8091	858.28
332.97 K, 14016 kPa, x2 = 0.8091	863.75
332.97 K, 15002 kPa, x2 = 0.8091	869.06
332.97 K, 16027 kPa, x2 = 0.8091	874.28
332.97 K, 17017 kPa, x2 = 0.8091	879.06
332.97 K, 18042 kPa, x2 = 0.8091	883.74
332.97 K, 19003 kPa, x2 = 0.8091	887.97
332.97 K, 20021 kPa, x2 = 0.8091	892.23
332.97 K, 21029 kPa, x2 = 0.8091	896.31
332.97 K, 22019 kPa, x2 = 0.8091	900.16
332.97 K, 23004 kPa, x2 = 0.8091	903.83
332.97 K, 24041 kPa, x2 = 0.8091	907.6
332.97 K, 24998 kPa, x2 = 0.8091	910.97
332.98 K, 8015 kPa, x2 = 0.4268	929.54
332.98 K, 9023 kPa, x2 = 0.4268	930.86
332.98 K, 9996 kPa, x2 = 0.4268	932.09
332.98 K, 11004 kPa, x2 = 0.4268	933.37
332.98 K, 12004 kPa, x2 = 0.4268	934.65
332.98 K, 13005 kPa, x2 = 0.4268	935.88
332.98 K, 13019 kPa, x2 = 0.9311	744.38

From the NIST ThermoML archive (doi:10.1021/je050050p)
